We go through one compound from ChEMBL document CHEMBL1255464, “Ethambutol optimal clinical dose and susceptibility breakpoint identification by use of a novel pharmacokinetic-pharmacodynamic model of disseminated intracellular Mycobacterium avium” (Antimicrob Agents Chemother, 2010).

Data set [1] concerns Mycobacterium avium. Briefly: Antimycobacterial activity against Mycobacterium avium ATCC 700898 infected in human THP1 cells. It counts as functional, THP-1.
Data set [2] concerns Mycobacterium avium. Briefly: Antimycobacterial activity against Mycobacterium avium ATCC 700898 infected in human THP1 cells assessed as extracellular bacterial killing. It is filed as functional. Particulars: ATCC 700898, THP-1.
In data set [3] the test system is Mycobacterium avium. Briefly: Antimycobacterial activity against Mycobacterium avium ATCC 700898 infected in human THP1 cells assessed as extracellular bacterial killing after 7 days. It is filed as functional, organism-based. The conditions noted are these: ATCC 700898, THP-1, 168 h.
In data set [4] the test system is Mycobacterium avium. Kind of data set: Antimycobacterial activity against Mycobacterium avium ATCC 700898 infected in human THP1 cells assessed as intracellular bacterial killing. It is filed as functional. The conditions noted are these: ATCC 700898, THP-1.
In data set [5] the test system is Mycobacterium avium. Kind of data set: Antimycobacterial activity against Mycobacterium avium ATCC 700898 infected in human THP1 cells assessed as intracellular bacterial killing after 7 days. Particulars: ATCC 700898, THP-1, 168 h. It is filed as functional, organism-based.
The subject of the next data set is THP-1. Kind of data set: Cytotoxicity against human THP1 cells. It is filed as cell-based.

In brackets after ≈: the same amount, converted by molar mass.

What is called MIC is the lowest concentration that inhibits growth of the organism. The low end stands for greater potency, the high end for weaker potency. What is called EC50 is the concentration giving half of the maximal effect. For the compound `CC[C@@H](CO)NCCN[C@@H](CC)CO` [ETHAMBUTOL], 8 µg/mL (≈ 39.2 µM) was the least that counted as inhibitory against Mycobacterium avium [1] (MIC). In addition, the Emax with Mycobacterium avium [2] is 5.54 log10 CFU/ml; in the data set on Mycobacterium avium [4] it was 0.67 log10 CFU/ml. Also, the values for the EC50 in the data set on Mycobacterium avium [3] and in the data set with Mycobacterium avium [5] were 5.38 µg/mL (≈ 26.3 µM) and 7.93 µg/mL (≈ 38.8 µM), respectively. Besides, the Activity result in the data set on THP-1 was “Non-toxic”.
